Experiment [1] relates to Streptococcus mutants (S. mutans). Conditions: cited from earlier work.
Experiment [2] relates to Biofilms of S. mutans UA159. The experiment can be described thus: Antibiofilm activity, CFU per dry weight of biofilms on sHA discs. It is filed as cell-based, Streptococcus mutans. To be noted: equivalent dose of free farnesol (15% EtOH) or free NPC. The protocol:
Biofilms of S. mutans UA159 were formed on saliva coated hydroxyapatite (sHA) surfaces (12.7 mm in diameter, 1 mm in thickness, Clarkson Chromatography Products Inc., South Williamsport, Pa.) as detailed elsewhere (Koo et al., 2010, J Bacteriol, 192(12):3024-32). The HA discs were placed vertically using a custom-made holder and grown in UFTYE (pH 7.0) with 1% sucrose at 37° C. and 5% CO2. Disks were pretreated with the above-described solutions for 10 min, washed twice with sterile saline, and transferred back to culture media. The first treatment was applied directly after salivary pellicle formation (sHA) then treated disks were transferred to culture media containing S. mutans (10^5 CFU/ml). Biofilms were allowed to form on the discs without interruption for 6 hours at which point a second treatment was applied. The next day, biofilms were treated every 6 hours for a total of 3 treatments and the culture media was changed twice. After 48 hours, the amount of colony forming units (CFU) per dry-weight of biofilms was assessed. Briefly, the biofilms were removed and homogenized, then plated onto blood agar plates, and after incubation at 37° C., 5% CO2, the CFUs were counted as described previously (Koo et al., 2003, J Antimicrob Chemother, 52(5):782-9).

For orientation: MIC means the lowest concentration that inhibits growth of the organism. On to `CC(C)=CCCC(C)=CCCC(C)=CCO` [farnesol], for which, in experiment [1], the minimal inhibitory concentration (MIC) was under 28 µg/mL. Moreover, in experiment [2], the “effect on CFU relative to PBS” value is recorded as “no effect on CFU”.

The values above are taken from patent publication US9566247B2, “Nanoparticles for controlled release of anti-biofilm agents and methods of use” (priority 2013, dated 2017).
